Data reported in patent publication US11142525B2 (Pfizer Inc., priority 2018, dated 2021).
Like-named read-outs stand apart in the source and are kept apart here.

What was measured:
[1] = molecular target: human full-length recombinant HPK1 (Homo sapiens (Human), UniProt Q92918); test: HPK1 biochemical enzyme assay, microfluidic mobility shift assay (MSA); details: read-out: HPK1 Enzyme Assay_Ki
Procedure: HPK1 enzyme inhibition was measured using a microfluidic mobility shift assay (MSA). […] The reactions were conducted for 60 min at 37° C., stopped by the addition of 50 μL of 0.015 M EDTA, pH 8, and the extent of reactions (˜15-20% conversion with no inhibitor) was determined after electrophoretic separation of the fluorescently labeled peptide substrate and phosphorylated product on an LabChip EZ Reader II (PerkinElmer, Inc., Waltham, Mass.). […]

[2] = test system: phospho-SLP-76 (Ser376) in Jurkat cells; test: Phospho-SLP-76 (Ser376) Homogeneous Time Resolved Fluorescence (HTRF) assay in Jurkat cells; assay type: cell-based; details: Homo sapiens, read-out: SLP76 Assay_IC50
Procedure: Jurkat cells were seeded at 90,000 cells/well in 90 uL of RPMI1640 growth medium containing 10% FBS and incubated at 37° C. with 5% CO2 overnight. The following day, compounds were serially diluted from a 10 mM top dose for an 11-point 3 fold dilution curve in DMSO. Compounds were intermediately diluted 1:100 into growth media prior to diluting 1:10 on cells for final concentration 10 μM to 0.1 nM in 0.1% DMSO. After 30 minutes pre-treatment with compounds, the cells were stimulated using 200 μg/mL of F(ab)2 complexed anti-CD3 (clone UCTH1) for 15 min at 37° C. with 5% CO2. Stimulation was stopped with ice cold PBS and cells were harvested by centrifugation before lysis in Cisbio lysis buffer (Cisbio, Bedford, Mass.). Lysates were transferred to white, low-volume plates containing anti-phospho-SLP-76-Cryptate plus anti-phospho-SLP-76-d2 HTRF antibodies and incubated overnight at room temperature protected from light according to the manufacturer's protocol (Cisbio, Bedford, Mass.). HTRF was measured on a Perkin Elmer Envision and IC50 values were calculated by concentration-response curve fitting utilizing four-parameter nonlinear regression analyses.

[3] = mobility shift assay, 75 μM ATP, Morrison equation, tight-binding competitive inhibition
[4] = 30 min pre-treatment, anti-CD3 stimulation 15 min, HTRF
[5] = Phospho-SLP-76 (Ser376) HTRF, anti-CD3 stimulation

Chain of human full-length recombinant HPK1 (Q92918 whole entry): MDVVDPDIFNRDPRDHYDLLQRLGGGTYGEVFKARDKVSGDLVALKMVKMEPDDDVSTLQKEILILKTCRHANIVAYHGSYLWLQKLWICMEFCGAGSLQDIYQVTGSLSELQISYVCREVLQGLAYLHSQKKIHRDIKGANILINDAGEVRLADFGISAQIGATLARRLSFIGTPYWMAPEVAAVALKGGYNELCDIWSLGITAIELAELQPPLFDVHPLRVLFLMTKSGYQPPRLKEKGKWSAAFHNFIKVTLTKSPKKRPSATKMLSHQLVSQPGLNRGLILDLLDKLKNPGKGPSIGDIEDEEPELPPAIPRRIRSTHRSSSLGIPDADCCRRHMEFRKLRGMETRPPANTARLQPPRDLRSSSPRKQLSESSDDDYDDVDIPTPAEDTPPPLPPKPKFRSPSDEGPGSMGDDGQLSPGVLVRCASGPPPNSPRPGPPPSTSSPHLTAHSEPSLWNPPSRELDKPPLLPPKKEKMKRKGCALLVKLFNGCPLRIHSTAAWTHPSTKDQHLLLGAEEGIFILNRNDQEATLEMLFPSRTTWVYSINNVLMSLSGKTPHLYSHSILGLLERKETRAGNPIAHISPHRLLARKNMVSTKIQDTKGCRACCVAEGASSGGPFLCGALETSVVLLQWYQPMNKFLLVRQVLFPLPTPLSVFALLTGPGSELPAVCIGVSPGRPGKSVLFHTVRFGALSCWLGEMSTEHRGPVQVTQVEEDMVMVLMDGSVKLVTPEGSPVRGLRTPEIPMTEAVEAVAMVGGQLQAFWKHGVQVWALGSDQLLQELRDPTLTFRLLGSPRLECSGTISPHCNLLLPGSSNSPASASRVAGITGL

| Compound | Ki [1, 3] [nM] | IC50 [2, 4] [nM] | Ki ([1]; HPK1 mobility shift assay) [nM] | IC50 [2, 5] [nM] |
| --- | --- | --- | --- | --- |
| CNCc1nc(N(C)C)cc2c1CN(c1cccc(-c3nncn3C(C)C)n1)C2=O [Example 1, 6-(dimethylamino)-4-[(methylamino)methyl]-2-{6-[4-(propan-2-yl)-4H-1,2,4-triazol-3-yl]pyridin-2-yl}-2,3-dihydro-1H-pyrrolo[3,4-c]pyridin-1-one] | 0.15 | 112 |  |  |
| CNCc1nc(N2CCC2)cc2c1CN(c1cccc(-c3nncn3C(C)C)n1)C2=O [Example 2, 6-(azetidin-1-yl)-4-[(methylamino)methyl]-2-{6-[4-(propan-2-yl)-4H-1,2,4-triazol-3-yl]pyridin-2-yl}-2,3-dihydro-1H-pyrrolo[3,4-c]pyridin-1-one] | 0.28 | 86 |  |  |
| CCN(CC)c1cc2c(c(CNC)n1)CN(c1cccc(-c3nncn3C(C)C)n1)C2=O [Example 4, 6-(diethylamino)-4-[(methylamino)methyl]-2-{6-[4-(propan-2-yl)-4H-1,2,4-triazol-3-yl]pyridin-2-yl}-2,3-dihydro-1H-pyrrolo[3,4-c]pyridin-1-one] | 0.39 | 106 |  |  |
| CNCc1nc(C2CC2)cc2c1CN(c1cccc(-c3nncn3C(C)C)n1)C2=O [Example 5, 6-cyclopropyl-4-[(methylamino)methyl]-2-{6-[4-(propan-2-yl)-4H-1,2,4-triazol-3-yl]pyridin-2-yl}-2,3-dihydro-1H-pyrrolo[3,4-c]pyridin-1-one] | 0.39 | 186 |  |  |
| CNCc1nc(N(C)C(C)C)cc2c1CN(c1cccc(-c3nncn3C(C)C)n1)C2=O [Example 6, 4-[(methylamino)methyl]-6-[methyl(propan-2-yl)amino]-2-{6-[4-(propan-2-yl)-4H-1,2,4-triazol-3-yl]pyridin-2-yl}-2,3-dihydro-1H-pyrrolo[3,4-c]pyridin-1-one] | 0.13 | 39 |  |  |
| CNCc1nc(C2(C)CC2)cc2c1CN(c1cccc(-c3nncn3C(C)C)n1)C2=O [Example 7, 4-[(methylamino)methyl]-6-(1-methylcyclopropyl)-2-{6-[4-(propan-2-yl)-4H-1,2,4-triazol-3-yl]pyridin-2-yl}-2,3-dihydro-1H-pyrrolo[3,4-c]pyridin-1-one] | 1.46 | 730 |  |  |
| CNCc1nc(N2[C@H](C)CC[C@H]2C)cc2c1CN(c1cccc(-c3nncn3C(C)C)n1)C2=O [Example 8, 6-[(2R,5R)-2,5-dimethylpyrrolidin-1-yl]-4-[(methylamino)methyl]-2-{6-[4-(propan-2-yl)-4H-1,2,4-triazol-3-yl]pyridin-2-yl}-2,3-dihydro-1H-pyrrolo[3,4-c]pyridin-1-one] | 0.25 | 89 |  |  |
| CCN(CC)c1cc2c(c(CNC)n1)CN(c1cccc(-c3nncn3CC)n1)C2=O [Example 9, 6-(diethylamino)-2-[6-(4-ethyl-4H-1,2,4-triazol-3-yl)pyridin-2-yl]-4-[(methylamino)methyl]-2,3-dihydro-1H-pyrrolo[3,4-c]pyridin-1-one] | 0.27 | 88 |  |  |
| CNCc1nc(N(C)C)cc2c1CN(c1cccc(N3C(=O)OC[C@@H]3C)n1)C2=O [Example 10, 6-(dimethylamino)-4-[(methylamino)methyl]-2-{6-[(4S)-4-methyl-2-oxo-1,3-oxazolidin-3-yl]pyridin-2-yl}-2,3-dihydro-1H-pyrrolo[3,4-c]pyridin-1-one] | 0.26 | 97.6 |  |  |
| CC(C)c1[nH]ncc1-c1cccc(N2Cc3c(cc(N(C)C)nc3CN)C2=O)n1 [Example 11, 4-(aminomethyl)-6-(dimethylamino)-2-{6-[5-(propan-2-yl)-1H-pyrazol-4-yl]pyridin-2-yl}-2,3-dihydro-1H-pyrrolo[3,4-c]pyridin-1-one] | 0.09 | 159 |  |  |
| CC(C)n1cnnc1-c1cccc(N2Cc3c(cc(N(C)C)nc3CN)C2=O)n1 [Example 12, 4-(aminomethyl)-6-(dimethylamino)-2-{6-[4-(propan-2-yl)-4H-1,2,4-triazol-3-yl]pyridin-2-yl}-2,3-dihydro-1H-pyrrolo[3,4-c]pyridin-1-one] | 0.2 | 155 |  |  |
| C[C@@H](CC(F)(F)F)n1cnnc1-c1cccc(N2Cc3c(cc(N(C)C)nc3CN)C2=O)n1 [Example 13, 4-(aminomethyl)-6-(dimethylamino)-2-(6-{4-[(2S)-4,4,4-trifluorobutan-2-yl]-4H-1,2,4-triazol-3-yl}pyridin-2-yl)-2,3-dihydro-1H-pyrrolo[3,4-c]pyridin-1-one] | < 0.08 | 85 |  |  |
| CC[C@H](C)n1cnnc1-c1cccc(N2Cc3c(cc(N(C)C)nc3CNC)C2=O)n1 [Example 14, 2-(6-{4-[(2S)-butan-2-yl]-4H-1,2,4-triazol-3-yl}pyridin-2-yl)-6-(dimethylamino)-4-[(methylamino)methyl]-2,3-dihydro-1H-pyrrolo[3,4-c]pyridin-1-one] | 0.17 | 102 |  |  |
| CN(C)c1cc2c(c(CN)n1)CN(c1cccc(-c3nncn3CC3CC3)n1)C2=O [Example 16, 4-(aminomethyl)-2-{6-[4-(cyclopropylmethyl)-4H-1,2,4-triazol-3-yl]pyridin-2-yl}-6-(dimethylamino)-2,3-dihydro-1H-pyrrolo[3,4-c]pyridin-1-one] | 0.56 | 358 |  |  |
| CNCc1nc(N(C)C)cc2c1CN(c1cccc(-c3nncn3[C@@H](C)CC(F)(F)F)n1)C2=O [Example 17, 6-(dimethylamino)-4-[(methylamino)methyl]-2-(6-{4-[(2S)-4,4,4-trifluorobutan-2-yl]-4H-1,2,4-triazol-3-yl}pyridin-2-yl)-2,3-dihydro-1H-pyrrolo[3,4-c]pyridin-1-one] | < 0.05 | 70 |  |  |

More lines, now with the values ahead:

| Ki [1, 3] [nM] | IC50 [2, 4] [nM] | Ki ([1]; HPK1 mobility shift assay) [nM] | IC50 [2, 5] [nM] | Compound |
| --- | --- | --- | --- | --- |
| 6.9 | > 10000 |  |  | CC[C@H](CC(F)(F)F)n1cnnc1-c1cccc(N2Cc3c(cc(N(C)C)nc3CNC)C2=O)n1 (single isomer, unassigned) [Example 19, 6-(dimethylamino)-4-[(methylamino)methyl]-2-(6-{4-[(3ξ)-1,1,1-trifluoropentan-3-yl]-4H-1,2,4-triazol-3-yl}pyridin-2-yl)-2,3-dihydro-1H-pyrrolo[3,4-c]pyridin-1-one] |
| 7.1 | 1520 |  |  | CC[C@H](CC(F)(F)F)n1cnnc1-c1cccc(N2Cc3c(cc(C(C)(C)C)nc3CNC)C2=O)n1 (single isomer, unassigned) [Example 51, 6-tert-butyl-4-[(methylamino)methyl]-2-(6-{4-[(3ξ)-1,1,1-trifluoropentan-3-yl]-4H-1,2,4-triazol-3-yl}pyridin-2-yl)-2,3-dihydro-1H-pyrrolo[3,4-c]pyridin-1-one] |
|  |  | 4.48 | 1020 | CC[C@@H](CC(F)(F)F)n1cnnc1-c1cccc(N2Cc3c(cc(N(C)C(C)C)nc3CNC)C2=O)n1 (single isomer, unassigned) [Example 72, 4-[(methylamino)methyl]-6-[methyl(propan-2-yl)amino]-2-(6-{4-[(3ξ)-1,1,1-trifluoropentan-3-yl]-4H-1,2,4-triazol-3-yl}pyridin-2-yl)-2,3-dihydro-1H-pyrrolo[3,4-c]pyridin-1-one] |
|  |  | 0.22 | 61 | CC[C@H](CC(F)(F)F)n1cnnc1-c1cccc(N2Cc3c(cc(N(C)C(C)C)nc3CNC)C2=O)n1 (single isomer, unassigned) [Example 73, 4-[(methylamino)methyl]-6-[methyl(propan-2-yl)amino]-2-(6-{4-[(3ξ)-1,1,1-trifluoropentan-3-yl]-4H-1,2,4-triazol-3-yl}pyridin-2-yl)-2,3-dihydro-1H-pyrrolo[3,4-c]pyridin-1-one] |
| 2.8 | 158 |  |  | CCn1cnnc1-c1cccc(N2Cc3c(cc(N(C)C)nc3CNC)C2=O)n1 [Example 20, 6-(dimethylamino)-2-[6-(4-ethyl-4H-1,2,4-triazol-3-yl)pyridin-2-yl]-4-[(methylamino)methyl]-2,3-dihydro-1H-pyrrolo[3,4-c]pyridin-1-one] |
| 0.62 | 245 |  |  | CNCc1nc(N(C)C)cc2c1CN(c1cccc(-c3nncn3CC3CC3)n1)C2=O [Example 21, 2-{6-[4-(cyclopropylmethyl)-4H-1,2,4-triazol-3-yl]pyridin-2-yl}-6-(dimethylamino)-4-[(methylamino)methyl]-2,3-dihydro-1H-pyrrolo[3,4-c]pyridin-1-one] |
| 0.4 | 105 |  |  | CNCc1nc(N(C)C)cc2c1CN(c1ccc(F)c(-c3cn[nH]c3C(C)C)n1)C2=O [Example 22, 6-(dimethylamino)-2-{5-fluoro-6-[5-(propan-2-yl)-1H-pyrazol-4-yl]pyridin-2-yl}-4-[(methylamino)methyl]-2,3-dihydro-1H-pyrrolo[3,4-c]pyridin-1-one] |
| 0.9 | 439 |  |  | C[C@H]1COC(=O)N1c1cccc(N2Cc3c(cc(C4CC4)nc3CN)C2=O)n1 [Example 26, 4-(aminomethyl)-6-cyclopropyl-2-{6-[(4S)-4-methyl-2-oxo-1,3-oxazolidin-3-yl]pyridin-2-yl}-2,3-dihydro-1H-pyrrolo[3,4-c]pyridin-1-one] |
